Results as given in patent US9499519B2, “Fused pyrimidine compounds and use thereof” (Medivation Technologies, Inc., priority 2012, dated 2016).
Where two headings read alike, the source gives them in different places.

Key:
[1] = target: T1, IGF-1R (Homo sapiens, UniProt P08069); assay: In vitro IGF-1R enzymatic assay (ADP-Glo kinase assay); type: biochemical; details: activated IGF-1R; for inhibition at 0.03 µM / % Inh @ 30 nM (N1) / % Inh @ 30 nM (N2) / % Inh @ 30 nM Avg: 30 nM; for % Inh @ 30 nM (N1) / % Inh @ 30 nM (N2): 0.03 µM
T1 construct: purchased Millipore 14-802
T1 sequence (P08069 31-1367): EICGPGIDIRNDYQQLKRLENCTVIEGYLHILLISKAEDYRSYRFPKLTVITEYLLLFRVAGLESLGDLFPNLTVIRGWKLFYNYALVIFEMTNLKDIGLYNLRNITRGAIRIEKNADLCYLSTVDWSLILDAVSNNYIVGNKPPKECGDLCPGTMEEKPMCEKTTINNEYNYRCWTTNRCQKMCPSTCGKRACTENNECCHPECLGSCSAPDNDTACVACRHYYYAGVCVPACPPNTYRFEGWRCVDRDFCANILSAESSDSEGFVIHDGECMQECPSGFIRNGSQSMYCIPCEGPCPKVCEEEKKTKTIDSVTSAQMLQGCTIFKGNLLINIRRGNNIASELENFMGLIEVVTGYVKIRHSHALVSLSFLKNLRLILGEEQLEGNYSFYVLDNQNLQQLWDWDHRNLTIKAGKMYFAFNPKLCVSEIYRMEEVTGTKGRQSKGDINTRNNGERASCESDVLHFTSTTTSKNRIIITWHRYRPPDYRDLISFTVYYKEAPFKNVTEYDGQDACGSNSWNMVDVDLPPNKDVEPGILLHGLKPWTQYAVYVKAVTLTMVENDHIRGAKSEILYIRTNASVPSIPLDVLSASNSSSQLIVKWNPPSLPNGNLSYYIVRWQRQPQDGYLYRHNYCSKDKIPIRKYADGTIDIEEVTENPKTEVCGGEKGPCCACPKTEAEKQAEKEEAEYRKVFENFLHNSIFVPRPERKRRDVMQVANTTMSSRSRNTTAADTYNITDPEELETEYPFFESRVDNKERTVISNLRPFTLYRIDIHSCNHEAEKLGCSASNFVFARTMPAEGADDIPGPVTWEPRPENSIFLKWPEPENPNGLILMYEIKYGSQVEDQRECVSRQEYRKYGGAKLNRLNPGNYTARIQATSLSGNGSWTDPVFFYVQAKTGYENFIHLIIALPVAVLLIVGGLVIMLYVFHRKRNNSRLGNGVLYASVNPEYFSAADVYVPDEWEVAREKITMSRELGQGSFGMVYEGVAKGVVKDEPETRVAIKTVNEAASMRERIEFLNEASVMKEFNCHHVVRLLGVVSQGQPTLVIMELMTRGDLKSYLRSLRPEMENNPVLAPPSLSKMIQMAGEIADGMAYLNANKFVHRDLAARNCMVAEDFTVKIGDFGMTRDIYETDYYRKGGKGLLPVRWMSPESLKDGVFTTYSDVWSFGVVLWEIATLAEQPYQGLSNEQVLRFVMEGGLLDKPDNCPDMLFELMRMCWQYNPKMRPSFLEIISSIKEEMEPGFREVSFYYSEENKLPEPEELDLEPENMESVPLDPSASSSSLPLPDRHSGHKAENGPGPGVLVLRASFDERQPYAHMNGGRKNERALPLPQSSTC
Experimental: (§1) IC50 values of the compounds of the invention against IGF-1R and IR were measured in vitro using an ADP-Glo kinase assay Kit (Promega). […] Kinase reactions in both assays were conducted at 30° C. for 20 min with increasing concentrations of compounds of the invention.
Additional compounds of the invention were screened against activated IGF-1R.

[2] = target: T2, IR (Homo sapiens, UniProt P06213); assay: In vitro IR enzymatic assay (ADP-Glo kinase assay); type: biochemical; details: activated IR, 30 nM; for % Inh @ 30 nM (N1) / % Inh @ 30 nM (N2): 0.03 µM
T2 construct: purchased Millipore 14-803
T2 sequence (P06213 28-1382): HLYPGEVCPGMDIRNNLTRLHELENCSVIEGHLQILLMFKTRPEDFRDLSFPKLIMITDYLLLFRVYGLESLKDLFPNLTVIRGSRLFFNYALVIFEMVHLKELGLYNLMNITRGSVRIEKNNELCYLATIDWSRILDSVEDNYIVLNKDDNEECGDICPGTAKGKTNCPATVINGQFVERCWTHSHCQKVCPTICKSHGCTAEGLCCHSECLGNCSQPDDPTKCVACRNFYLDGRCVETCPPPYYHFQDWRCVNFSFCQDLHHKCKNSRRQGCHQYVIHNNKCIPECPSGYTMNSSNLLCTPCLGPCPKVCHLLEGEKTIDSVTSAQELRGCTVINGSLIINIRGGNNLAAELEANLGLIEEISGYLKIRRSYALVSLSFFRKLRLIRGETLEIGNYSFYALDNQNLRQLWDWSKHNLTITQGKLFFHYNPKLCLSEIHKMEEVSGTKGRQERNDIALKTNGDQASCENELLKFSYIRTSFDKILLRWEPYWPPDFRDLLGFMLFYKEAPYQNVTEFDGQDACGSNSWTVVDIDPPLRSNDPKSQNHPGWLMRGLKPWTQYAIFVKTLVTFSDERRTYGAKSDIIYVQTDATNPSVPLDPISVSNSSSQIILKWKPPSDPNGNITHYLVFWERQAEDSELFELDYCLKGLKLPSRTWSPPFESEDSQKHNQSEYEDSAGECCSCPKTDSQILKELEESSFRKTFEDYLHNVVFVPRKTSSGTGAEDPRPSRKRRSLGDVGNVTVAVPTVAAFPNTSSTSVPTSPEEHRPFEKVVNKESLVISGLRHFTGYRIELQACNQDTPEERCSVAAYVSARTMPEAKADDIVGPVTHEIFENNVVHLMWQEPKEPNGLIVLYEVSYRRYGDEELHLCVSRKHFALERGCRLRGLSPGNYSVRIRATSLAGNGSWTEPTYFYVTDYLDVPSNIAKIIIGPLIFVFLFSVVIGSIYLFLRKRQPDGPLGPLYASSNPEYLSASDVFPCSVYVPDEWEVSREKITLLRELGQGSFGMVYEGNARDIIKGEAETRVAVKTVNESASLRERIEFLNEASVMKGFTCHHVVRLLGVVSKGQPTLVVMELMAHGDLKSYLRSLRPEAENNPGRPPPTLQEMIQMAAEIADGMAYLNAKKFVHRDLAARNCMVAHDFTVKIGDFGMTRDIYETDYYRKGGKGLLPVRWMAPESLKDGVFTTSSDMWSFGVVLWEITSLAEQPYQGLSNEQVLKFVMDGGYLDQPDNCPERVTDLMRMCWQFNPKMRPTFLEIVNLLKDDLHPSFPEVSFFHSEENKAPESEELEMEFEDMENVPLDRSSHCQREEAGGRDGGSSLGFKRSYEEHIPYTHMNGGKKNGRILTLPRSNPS
Experimental: as §1
Additional compounds of the invention were screened against activated IR.

[3] = system: Akt phosphorylation induced by IGF-1R; assay: Western blot analysis of Akt phosphorylation induced by IGF-1 in HT-29 cells; type: cell-based, Human; details: for Levels of phosphorylated AKT in treated cells (pAKT/actin): HT-29 cells, IGF-1; for p-AKT relative to levels with 0.1 nM compound: Table B2 lower part; for Normalized phosphorylated AKT (relative to actin) levels relative to 0.1 nM compound treatment: Table B2 upper part
How it was run: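 Phospho-Akt assessed by western blot in serum-depleted (24 h) human colon carcinoma HT-29 cells. Compounds applied for 2 h at 0.1–100 (0.1, 1, 10, 100); vehicle DMSO and 10 ng/mL IGF-1 served as controls. Protein in cleared lysates measured by BCA assay.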

[4] = N1, read-out: % Inh @ 30 nM (N1)
[5] = N2, read-out: % Inh @ 30 nM (N2)
[6] = average, read-out: % Inh @ 30 nM Avg

| Structure (SMILES) | inhibition at 0.03 µM [1, 6] [%] | inhibition at 0.03 µM [2, 6] [%] | Levels of phosphorylated AKT in treated cells (pAKT/actin) ([3]; 0.1 nM compound) | p-AKT relative to levels with 0.1 nM compound ([3]; 0.1 nM) | Normalized phosphorylated AKT (relative to actin) levels relative to 0.1 nM compound treatment ([3]; 0.1 nM) | Levels of phosphorylated AKT in treated cells (pAKT/actin) ([3]; 1 nM compound) | p-AKT relative to levels with 0.1 nM compound ([3]; 1 nM) | Normalized phosphorylated AKT (relative to actin) levels relative to 0.1 nM compound treatment ([3]; 1 nM) | Levels of phosphorylated AKT in treated cells (pAKT/actin) ([3]; 10 nM compound) | p-AKT relative to levels with 0.1 nM compound ([3]; 10 nM) | Normalized phosphorylated AKT (relative to actin) levels relative to 0.1 nM compound treatment ([3]; 10 nM) | Levels of phosphorylated AKT in treated cells (pAKT/actin) ([3]; 100 nM compound) | p-AKT relative to levels with 0.1 nM compound ([3]; 100 nM) | Normalized phosphorylated AKT (relative to actin) levels relative to 0.1 nM compound treatment ([3]; 100 nM) | % Inh @ 30 nM Avg ([1]; average) [%] | % Inh @ 30 nM Avg ([2]; average) [%] | also measured |
| --- | --- | --- | --- | --- | --- | --- | --- | --- | --- | --- | --- | --- | --- | --- | --- | --- | --- |
| CC(C)c1cc(Nc2nc(N3CCCC3C(=O)Nc3ccc(F)nc3)nc3c2CCC3)on1 (racemic) [Compound 12b, N-(6-fluoropyridin-3-yl)-1-(4-(3-isopropylisoxazol-5-ylamino)-6,7-dihydro-5H-cyclopenta[d]pyrimidin-2-yl)pyrrolidine-2-carboxamide] | 24 | -12 | 3.66 | 1.0 | 1.0 | 3.56 | 1.0 | 1.0 | 4.32 | 1.2 | 1.2 | 2.29 | 0.6 | 0.6 |  |  | inhibition at 0.03 µM [1, 4]: 13%; inhibition at 0.03 µM [1, 5]: 34%; inhibition at 0.03 µM [2, 4]: -14%; inhibition at 0.03 µM [2, 5]: -10% |
| CC(C)c1cc(Nc2nc(N3CC(O)CC3C(=O)Nc3ccc(F)nc3)nc3c2CCC3)n[nH]1 (racemic) [Compound 70, N-(6-fluoropyridin-3-yl)-4-hydroxy-1-(4-(5-isopropyl-1H-pyrazol-3-ylamino)-6,7-dihydro-5H-cyclopenta[d]pyrimidin-2-yl)pyrrolidine-2-carboxamide] | 66 | 60 |  |  |  |  |  |  |  |  |  |  |  |  |  |  | IC50 [1]: 22 nM |
| O=C(Nc1ccc(F)nc1)C1CCCN1c1nc2c(c(Nc3cc(C4CC4)[nH]n3)n1)CCC2 (single isomer, unassigned) [Compound 2a, 1-(4-(5-cyclopropyl-1H-pyrazol-3-ylamino)-6,7-dihydro-5H-cyclopenta[d]pyrimidin-2-yl)-N-(6-fluoropyridin-3-yl)pyrrolidine-2-carboxamide] | 3 | 5 | 1.70 | 1.0 | 1.0 | 1.78 | 1.0 | 1.0 | 1.81 | 1.1 | 1.1 | 1.72 | 1.0 | 1.0 |  |  | inhibition at 0.03 µM [1, 4]: -12%; inhibition at 0.03 µM [1, 5]: 18%; inhibition at 0.03 µM [2, 4]: 0%; inhibition at 0.03 µM [2, 5]: 10% |
| O=C(Nc1ccc(F)nc1)C1CCCN1c1nc2c(c(Nc3cc(C4CCCC4)[nH]n3)n1)CCC2 (single isomer, unassigned) [Compound 4a, 1-(4-(3-cyclopentyl-1H-pyrazol-5-ylamino)-6,7-dihydro-5H-cyclopenta[d]pyrimidin-2-yl)-N-(6-fluoropyridin-3-yl)pyrrolidine-2-carboxamide] |  |  | 2.38 | 1.0 | 1.0 | 1.64 | 0.7 | 0.7 | 1.76 | 0.7 | 0.7 | 1.47 | 0.6 | 0.6 | 10 | −8 | % Inh @ 30 nM (N1) ([1]; N1): 4%; % Inh @ 30 nM (N2) ([1]; N2): 17%; % Inh @ 30 nM (N1) ([2]; N1): −14%; % Inh @ 30 nM (N2) ([2]; N2): −2% |
| O=C(Nc1ccc(F)nc1)C1CCCN1c1nc2c(c(Nc3cc(C4CCCC4)[nH]n3)n1)CCC2 (single isomer, unassigned) [Compound 4b, 1-(4-(3-cyclopentyl-1H-pyrazol-5-ylamino)-6,7-dihydro-5H-cyclopenta[d]pyrimidin-2-yl)-N-(6-fluoropyridin-3-yl)pyrrolidine-2-carboxamide] |  |  | 1.81 | 1.0 | 1.0 | 1.92 | 1.1 | 1.1 | 1.64 | 0.9 | 0.9 | 0.20 | 0.1 | 0.1 | 28 | 37 | % Inh @ 30 nM (N1) ([1]; N1): 22%; % Inh @ 30 nM (N2) ([1]; N2): 35%; % Inh @ 30 nM (N1) ([2]; N1): 41%; % Inh @ 30 nM (N2) ([2]; N2): 33% |
| O=C(Nc1cnccn1)C1CCCN1c1nc2c(c(Nc3cc(C4CC4)[nH]n3)n1)CCC2 (single isomer, unassigned) [Compound 6a, 1-(4-(3-cyclopropyl-1H-pyrazol-5-ylamino)-6,7-dihydro-5H-cyclopenta[d]pyrimidin-2-yl)-N-(pyrazin-2-yl)pyrrolidine-2-carboxamide] | 28 | -2 | 1.85 | 1.0 | 1.0 | 1.74 | 0.9 | 0.9 | 1.40 | 0.8 | 0.8 | 1.17 | 0.6 | 0.6 |  |  | inhibition at 0.03 µM [1, 4]: 22%; inhibition at 0.03 µM [1, 5]: 33%; inhibition at 0.03 µM [2, 4]: -13%; inhibition at 0.03 µM [2, 5]: 9% |
| O=C(Nc1ccc(F)nc1)C1CC(O)CN1c1nc2c(c(Nc3cc(C4CC4)[nH]n3)n1)CCC2 (single isomer, unassigned) [Compound 10d, 1-(4-(5-cyclopropyl-1H-pyrazol-3-ylamino)-6,7-dihydro-5H-cyclopenta[d]pyrimidin-2-yl)-N-(6-fluoropyridin-3-yl)-4-hydroxypyrrolidine-2-carboxamide] | 84 | 85 |  |  |  |  |  |  |  |  |  |  |  |  |  |  |  |
| CC(C)c1cc(Nc2nc(N3CCCC3C(N)=O)nc3c2CCC3)n[nH]1 (single isomer, unassigned) [Compound 18a, 1-(4-(5-isopropyl-1H-pyrazol-3-ylamino)-6,7-dihydro-5H-cyclopenta[d]pyrimidin-2-yl)pyrrolidine-2-carboxamide] |  |  |  |  |  |  |  |  |  |  |  |  |  |  | 14 | 3 |  |
| CC(C)c1cc(Nc2nc(N3CCCC3C(N)=O)nc3c2CCC3)n[nH]1 (single isomer, unassigned) [Compound 18b, 1-(4-(5-isopropyl-1H-pyrazol-3-ylamino)-6,7-dihydro-5H-cyclopenta[d]pyrimidin-2-yl)pyrrolidine-2-carboxamide] |  |  |  |  |  |  |  |  |  |  |  |  |  |  | 39 | 32 |  |
| CNC(=O)C1CCCN1c1nc2c(c(Nc3cc(C(C)C)[nH]n3)n1)CCC2 (single isomer, unassigned) [Compound 19a, 1-(4-(5-isopropyl-1H-pyrazol-3-ylamino)-6,7-dihydro-5H-cyclopenta[d]pyrimidin-2-yl)-N-methylpyrrolidine-2-carboxamide] |  |  |  |  |  |  |  |  |  |  |  |  |  |  | −3 | −9 |  |
| CNC(=O)C1CCCN1c1nc2c(c(Nc3cc(C(C)C)[nH]n3)n1)CCC2 (single isomer, unassigned) [Compound 19b, 1-(4-(5-isopropyl-1H-pyrazol-3-ylamino)-6,7-dihydro-5H-cyclopenta[d]pyrimidin-2-yl)-N-methylpyrrolidine-2-carboxamide] |  |  |  |  |  |  |  |  |  |  |  |  |  |  | 21 | 9 |  |
| CC(C)c1cc(Nc2nc(N3CCCC3C(=O)N(C)c3ccc(F)nc3)nc3c2CCC3)n[nH]1 (stereo not drawn) [Compound 55a, N-(6-fluoropyridin-3-yl)-1-(4-((5-isopropyl-1H-pyrazol-3-yl)amino)-6,7-dihydro-5H-cyclopenta[d]pyrimidin-2-yl)-N-methylpyrrolidine-2-carboxamide] | 13 | 8 |  |  |  |  |  |  |  |  |  |  |  |  |  |  |  |
